Reference: ChEMBL document CHEMBL1128970, “Synthesis and characterization of the second cysteine-rich region of mouse skin PKCGh” (Bioorg Med Chem Lett, 1996)

Key:
[1] = target: T1, Protein kinase C eta type (Mus musculus, UniProt P23298); assay: Inhibition of [3H]- PDBu binding to peptide D of mouse skin Protein kinase C eta
[2] = target: T2, Protein kinase C gamma type (Rattus norvegicus, UniProt P63319); assay: Inhibition of [3H]- PDBu binding to peptide C, rat brain PKC gamma
[3] = target: T2, Protein kinase C gamma type; assay: Inhibition of [3H]- PDBu binding to peptide C, rat brain PKC gamma (inactive)
[4] = target: T1, Protein kinase C eta type; assay: Inhibition of [3H]- PDBu binding to peptide D of mouse skin Protein kinase C eta (inactive)

T1 sequence (P23298 whole entry): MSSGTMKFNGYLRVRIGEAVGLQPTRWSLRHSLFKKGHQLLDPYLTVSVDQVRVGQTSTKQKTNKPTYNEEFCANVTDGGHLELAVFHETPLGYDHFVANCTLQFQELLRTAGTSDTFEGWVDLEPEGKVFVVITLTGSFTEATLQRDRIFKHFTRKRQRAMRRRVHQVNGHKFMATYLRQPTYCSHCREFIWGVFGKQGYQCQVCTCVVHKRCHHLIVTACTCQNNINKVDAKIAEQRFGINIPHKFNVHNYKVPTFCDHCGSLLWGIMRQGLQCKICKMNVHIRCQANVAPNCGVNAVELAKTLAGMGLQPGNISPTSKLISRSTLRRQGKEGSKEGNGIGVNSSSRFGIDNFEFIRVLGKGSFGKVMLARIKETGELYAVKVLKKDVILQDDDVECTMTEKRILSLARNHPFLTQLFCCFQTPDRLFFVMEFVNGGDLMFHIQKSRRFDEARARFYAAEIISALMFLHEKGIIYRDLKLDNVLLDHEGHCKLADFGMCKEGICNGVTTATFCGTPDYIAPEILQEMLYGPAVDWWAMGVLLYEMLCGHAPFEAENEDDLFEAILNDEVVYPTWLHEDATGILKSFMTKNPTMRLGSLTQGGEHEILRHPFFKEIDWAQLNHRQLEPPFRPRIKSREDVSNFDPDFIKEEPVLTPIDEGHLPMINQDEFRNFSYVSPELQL

Compound	Ki [1]	Ki [2]	Ki [3]	Ki [4]
CCCCCCCC(=O)OCC(CO)OC(=O)CCCCCCC (configuration not stated) [MONOCTANOIN COMPONENT C]	14.5 nM			
C=C[C@@]1(C)CC[C@](C)(C(C)C)c2cc3c4c(c[nH]c4c21)C[C@@H](CO)NC(=O)[C@H](C(C)C)N3C	0.1 nM	2 nM		
CCCC(=O)O[C@@H]1[C@@H](C)[C@@]2(O)[C@@H](C=C(CO)C[C@]3(O)C(=O)C(C)=C[C@@H]23)[C@@H]2C(C)(C)[C@]12OC(=O)CCC	0.6 nM	52.9 nM		
CCCCCCCCCC(=O)O[C@@H]1[C@@H](C)[C@@]2(O)[C@@H](C=C(CO)C[C@@]3(O)C(=O)C(C)=C[C@@H]23)[C@@H]2C(C)(C)[C@]12OC(=O)CCCCCCCCC			Not Active	Not Active
